Data from US4310348A, “Plant growth regulating compositions” (priority 1978, dated 1982).
Entries after “also recorded” stand apart in the source; their conditions may differ.

What was measured:
Tomato = test: greenhouse pre-emergent treatment, green weight, tomato (Table 2); type: in vivo; details: 4-week-old plants
Experimental: (§1) (a2) Seeds of bean, carrot, flax, green pepper, tomato, spinach, barley and sorghum were sown into cultivation pots (20×20 cm) filled with sand. The cultivation pots were placed in a greenhouse, and treated prior to plant emergence with 0.1 or 0.2 kg of racemic active agent/hectare. The green weights of the 4-week-old plants were measured, and the data were compared to those observed with the untreated controls.

Barley = test: greenhouse pre-emergent treatment, green weight, barley (Table 2); type: in vivo; details: 4-week-old plants
Experimental: as §1

corn [1] = test: open-air test on small parcels, pre- or post-emergent spraying of corn (Table 4); type: in vivo; details: for Ear yield / Green weight / Height: untreated = 100
Experimental: 10 parts by weight of (±)-2-(propargyloxyimino)-1,7,7-trimethyl-bicyclo[2,2,1]heptane are dissolved in 9 parts by weight of xylene, and 1 part by weight of a mixture of an anionic and a non-ionic surfactant (e.g. a 2:3 mixture of Atlox 3386 and Atlox 4851) is added to the solution. The mixture is homogenized. An emulsifiable concentrate containing 50% by weight of active agent (50 EC) is obtained, which can be diluted with water to form a spray liquid.
Corn seeds were sown in small (10×10 m) parcels, and the parcels were treated prior to or after plant emergence with an aqueous spray liquid prepared from the emulsifiable concentrate described in Example 8. The concentrate was diluted with rain water to a final active agent content of 0.02 to 0.1%, depending on the dosage applied, and 500 liters/hectare of the spray liquid were applied. The dosages examined in the pre-emergent treatments varied between […] of racemic active agent/hectare, whereas in the post-emergent treatment a dosage of 1 kg of racemic active agent/hectare was applied. The parcels were hoed in order to remove weeds.

Spinach = test: greenhouse pre-emergent treatment, green weight, spinach (Table 2); type: in vivo; details: 0.1 kg/ha, 4-week-old plants
Experimental: as §1

[2] = tested on: dried bean beetle (Acanthoscelides obtectus); test: protection against dried bean beetle on treated bean seeds (Table 8); type: in vivo
Experimental: (b) 100 g of bean seeds each were treated with a spray liquid containing 1.0% by weight of racemic active agent (prepared by diluting an emulsifiable concentrate containing 50% by weight of active agent) in an amount corresponding to 250, 500 and 1000 ppm of active agent, respectively. The control seeds were not treated. The seeds were put into small cylindrical flasks. 20 insects each were placed in the flasks, and the flasks were covered with a cloth. After 14 days the survivors were counted.

[3] = tested on: houseflies (Musca domestica); test: insecticidal activity, protection against houseflies (Table 5); details: in vivo
Experimental: (§2) The emulsifiable concentrate described in Example 8 was diluted with water to a final active agent content of 3% by weight, and an amount corresponding to 2.5 mg of racemic active agent/cm^2 of plane area of the resulting spray liquid was filled into a cylindrical flask. 20 flies, anaesthetized with carbon dioxide, were placed in the flask, the flask was covered with a Petri dish, and the effect of the active agent was observed. In the control test the same dosage of dichlorphon (O,O-dimethyl-2,2-dichlorovinyl phosphate) was applied as active agent.

Green pepper = test: greenhouse pre-emergent treatment, green weight, green pepper (Table 2); type: in vivo; details: 4-week-old plants
Experimental: as §1

corn [4] = test: open-air test on small parcels with dressed corn seeds (Table 3); type: in vivo
Experimental: (§3) 6 parts by weight of a 10% acetone solution of (±)-2-(propargyloxyimino)-1,7,7-trimethyl-bicyclo[2,2,1]heptane are added under stirring to a solution containing 30 parts by weight of acetone, 2.5 parts by weight of hydroxypropyl cellulose, 5 parts by weight of polyethylene glycol (molecular weight: 6000), 20 parts by weight of water and an arbitrary amount of a dyestuff having no germination-inhibiting effect.
(§4) (a1) Three cultivation pots were filled with sand, and 30 corn seeds each were sown. 10 of the seeds were not dressed (untreated controls), 10 of the seeds were dressed with a dressing agent described in Example 10 but containing no active agent (placebo), whereas the remaining 10 seeds were dressed with a dressing agent prepared according to Example 10 containing racemic active agent. The cultivation pots were placed in a greenhouse, and the temperature, light and atmospheric humidity of the greenhouse were maintained at optimum. The percentage of germinating seeds was determined, and on the 14th and 28th days after sowing the height and green weight of the emerged plants were measured. The results of the test are summarized in Table 1, in which the percentage of germination is related to the number of seeds sown, whereas the heights and green weights of the plants are given in percentages related to the untreated controls.
The procedure described in point (a) was repeated with the difference that the seeds were sown in a 10×10 m parcel, the plants were kept under observation for the whole growth season, and the crop yield was also determined. The parcel was hoed in order to remove weeds.

Flax = test: greenhouse pre-emergent treatment, green weight, flax (Table 2); type: in vivo; details: 4-week-old plants
Experimental: as §1

Bean = test: greenhouse pre-emergent treatment, green weight, bean (Table 2); type: in vivo; details: 4-week-old plants
Experimental: as §1

[5] = tested on: housefly (Musca domestica) larvae; test: insecticidal activity, protection against housefly larvae (Table 6); type: in vivo; details: for Development: in relation to the control
Experimental: 1 kg of wheat barn was admixed with 1 liter of milk, 10 g of fodder yeast and 6 g of Nipagin (ethyl p-hydroxybenzoate) to obtain a culture medium for the cultivation of housefly larvae. 200 g each of the above culture medium were put into small cylindrical flasks, and racemic active agent was added so that the active agent content of the culture medium was 250, 500 and 1000 ppm, respectively. The racemic active agent was introduced in the form of an emulsifiable concentrate containing 50% by weight of the compound concerned, and the culture medium was homogenized with the concentrate. No active agent was introduced into the control flask. 50 one-day-old housefly larvae each were placed in the cylindrical flasks, the flasks were covered with a cloth ensuring good ventilation, and the percentage of images developing from the pupae was determined in relation to the control.

[6] = acute oral toxicity (LD50) on white rats; details: rat, in vivo; white rats, oral administration
Excerpt: (§5) Therefore, the new compound of the formula (I) can be utilized to advantage as insecticidal agent for controlling granarial insect pests and insects attacking ornamental plants, indoor plants and vegetables.

Sorghum = test: greenhouse pre-emergent treatment, green weight, sorghum (Table 2); type: in vivo; details: 4-week-old plants
Experimental: as §1

Carrot = test: greenhouse pre-emergent treatment, green weight, carrot (Table 2); type: in vivo; details: 4-week-old plants
Experimental: as §1

corn [7] = test: greenhouse test, plant growth promoting effect on corn from dressed seeds (Table 1); type: in vivo
Experimental: as §3, §4

white rats = test: acute oral toxicity (LD50) on white rats; details: rat, in vivo
Excerpt: as §5

cholinesterase = cholinesterase blocking effect; type: biochemical
[8] = tested on: dried bean beetle (Acanthoscelides obtectus); test: protection against dried bean beetle, procedure of Example 13(a) (Table 7); type: in vivo; details: compared with dichlorphon
Experimental: as §2
Protection against dried bean beetle (Acanthoscelides obtectus)

[9] = post-emergent, 1.0 kg of active agent/hectare
[10] = pre-emergent, 0.1 kg of active agent/hectare
[11] = pre-emergent, 1.0 kg of active agent/hectare
[12] = pre-emergent, 3.0 kg of active agent/hectare
[13] = pre-emergent, 5.0 kg of active agent/hectare
[14] = dressed seeds, open air, untreated control = 100
[15] = 14th day after sowing, related to untreated controls
[16] = 28th day after sowing, related to untreated controls

C#CCON=C1CC2CCC1(C)C2(C)C (racemic) [racemic active agent, (±)-2-(propargyloxyimino)-1,7,7-trimethyl-bicyclo[2,2,1]heptane]
Green weight in relation to the controls (Tomato; 0.1 kg/ha): 120% | Green weight in relation to the controls (Tomato; 0.2 kg/ha): 112% | Green weight in relation to the controls (Barley; 0.1 kg/ha): 120% | Green weight in relation to the controls (Barley; 0.2 kg/ha): 105% | Ear yield (corn [1]; [9]): 109% | Green weight (corn [1]; [9]): 120% | Height (corn [1]; [9]): 116% | post-emergent results compared with pre-emergent, same dosage (in words) (corn [1]; post-emergent, 1 kg/hectare): slightly inferior to the former ones | Ear yield (corn [1]; [10]): 102% | Green weight (corn [1]; [10]): 108% | Height (corn [1]; [10]): 105% | effectiveness in pre-emergent treatment (in words) (corn [1]; pre-emergent, 0.1 kg/hectare): effective even in a dosage of 0.1 kg/hectare | Ear yield (corn [1]; [11]): 118% | Green weight (corn [1]; [11]): 127% | Height (corn [1]; [11]): 121% | Ear yield (corn [1]; [12]): 116% | Green weight (corn [1]; [12]): 135% | Height (corn [1]; [12]): 127% | Ear yield (corn [1]; [13]): 107% | Green weight (corn [1]; [13]): 115% | Height (corn [1]; [13]): 115% | Green weight in relation to the controls (Spinach): 135% | survival at 250 ppm ([2]; Acanthoscelides obtectus, 336 h, 250 ppm, after 14 days, percentage of the control, read-out: Survivors): 5% | survival at 500 ppm ([2]; Acanthoscelides obtectus, 336 h, 500 ppm, after 14 days, percentage of the control, read-out: Survivors): 0% | survival at 1000 ppm ([2]; Acanthoscelides obtectus, 336 h, 1000 ppm, after 14 days, percentage of the control, read-out: Survivors): 0% | killing of granarial insect pests such as dried bean beetle (in words) ([2]; even in a concentration of 250 ppm): can be applied successfully to kill granarial insect pests | effect on houseflies compared with dichlorphon (in words) [3]: approximately the same effect as dichlorphon | Green weight in relation to the controls (Green pepper; 0.1 kg/ha): 95% | Green weight in relation to the controls (Green pepper; 0.2 kg/ha): 140% | corn higher by (in comparison with the two controls) (corn [4]; Table 3): 27% | ear yield greater by (in comparison with the two controls) (corn [4]; Table 3): 20% | green weight higher by (in comparison with the two controls) (corn [4]; Table 3): 25% | Ear yield (corn [4]; [14]): 120% | Green weight (corn [4]; [14]): 125% | Height (corn [4]; [14]): 127% | Green weight in relation to the controls (Flax; 0.1 kg/ha): 118% | Green weight in relation to the controls (Flax; 0.2 kg/ha): 105% | Green weight in relation to the controls (Bean; 0.1 kg/ha): 110% | Green weight in relation to the controls (Bean; 0.2 kg/ha): 135% | Activity ([5]; 250 ppm): 70.4% | Development ([5]; 250 ppm): 29.6% | Activity ([5]; 500 ppm): 100.0% | Development ([5]; 500 ppm): 0% | Activity ([5]; 1000 ppm): 100.0% | Development ([5]; 1000 ppm): 0% | LD50 [6]: 1400 mg/kg | Green weight in relation to the controls (Sorghum; 0.1 kg/ha): 130% | Green weight in relation to the controls (Sorghum; 0.2 kg/ha): 130% | Green weight in relation to the controls (Carrot; 0.1 kg/ha): 105% | Green weight in relation to the controls (Carrot; 0.2 kg/ha): 140% | 14th day Green weight (corn [7]; [15]): 152% | 14th day Height (corn [7]; [15]): 143% | 28th day Green weight (corn [7]; [16]): 154% | 28th day Height (corn [7]; [16]): 148% | Germination (corn [7]; dressed corn seeds, greenhouse, related to number of seeds sown): 95%

C#CCON=C1CC2CCC1(C)C2(C)C (racemic) [new compound of the formula (I), 2-(proparglyoxyimino)-1,7,7-trimethyl-bicyclo[2,2,1]heptane]
toxicity (in words) (white rats): low toxicity; also recorded: superior to the known active agent with respect to its lower toxicity | cholinesterase blocking effect (cholinesterase): absence of cholinesterase blocking effect | speed of effect on more resistant test insects (in words) [8]: slower on more resistant test insects
